From patent US12552825B2 (Zikani Therapeutics, Inc., priority 2019, dated 2026)
Converted amounts (≈) assume the structure as drawn.

Experiments:
Type in all cases: cell-based
K. pneumoniae MP-546 = assay: MIC determination by CLSI broth dilution, K. pneumoniae MP-546; details: Klebsiella pneumoniae, MP546, CLSI broth dilution; strain MP-546
E. coli MP-4 = assay: MIC determination by CLSI broth dilution, E. coli MP-4; details: Escherichia coli, MP4, CLSI broth dilution; strain MP-4
K. pneumoniae MP-648 = assay: MIC determination by CLSI broth dilution, K. pneumoniae MP-648; details: Klebsiella pneumoniae, MP648, CLSI broth dilution; strain MP-648
S. aureus MP-12 = assay: microbe, parasite or virus in culture; details: Staphylococcus aureus, MP12, read-out: MIC S. aureus MP-12
P. aeruginosa MP-3 = assay: MIC determination by CLSI broth dilution, P. aeruginosa MP-3; details: Pseudomonas aeruginosa, MP3, strain MP-3
A. baumannii MP-15 = assay: MIC determination by CLSI broth dilution, A. baumannii MP-15; details: Acinetobacter baumannii, MP15, strain MP-15, read-out: MIC A. baumanii MP-15

Row | Compound | MIC (K. pneumoniae MP-546) [µg/mL] | MIC (E. coli MP-4) [µg/mL] | MIC (K. pneumoniae MP-648) [µg/mL] | MIC (S. aureus MP-12) [µg/mL] | MIC (P. aeruginosa MP-3) [µg/mL] | MIC (A. baumannii MP-15) [µg/mL]
1 | CO[C@]1(C)C[C@@H](C)CN(C)[C@@H](CCCN2CCC[C@@H]2C(F)(F)F)COC(=O)C(C)(C)C(=O)[C@H](C)[C@H]1O[C@@H]1O[C@H](C)C[C@H](N(C)C)[C@H]1O [Compound 123, (3S,6R,8R,9R,10R)-9-(((2S,3R,4S,6R)-4-(dimethylamino)-3-hydroxy-6-methyltetrahydro-2H-pyran-2-yl)oxy)-8-methoxy-4,6,8,10,12,12-hexamethyl-3-(3-((R)-2-(trifluoromethyl)pyrrolidin-1-yl)propyl)-1-oxa-4-azacyclotridecane-11,13-dione] | > 32 | > 32 | > 32 | > 32 | > 32 | > 32
2 | CO[C@]1(C)C[C@@H](C)CN(C)[C@@H](CCCN2CC[C@H](F)C2)COC(=O)C(C)(C)C(=O)[C@H](C)[C@H]1O[C@@H]1O[C@H](C)C[C@H](N(C)C)[C@H]1O [Compound 125, (3S,6R,8R,9R,10R)-9-(((2S,3R,4S,6R)-4-(dimethylamino)-3-hydroxy-6-methyltetrahydro-2H-pyran-2-yl)oxy)-3-(3-((S)-3-fluoropyrrolidin-1-yl)propyl)-8-methoxy-4,6,8,10,12,12-hexamethyl-1-oxa-4-azacyclotridecane-11,13-dione] | < 4 | < 4 | 4 to 32 (≈ 6.35 to 50.8 µM) | 4 to 32 (≈ 6.35 to 50.8 µM) | > 32 | > 32
3 | CCCN1C[C@H](C)C[C@@](C)(OC)[C@H](O[C@@H]2O[C@H](C)C[C@H](N(C)C)[C@H]2O)[C@@H](C)C(=O)C(C)(C)C(=O)OC[C@@H]1CCCN1Cc2ccccc2C1 [Compound 126, (3S,6R,8R,9R,10R)-9-(((2S,3R,4S,6R)-4-(dimethylamino)-3-hydroxy-6-methyltetrahydro-2H-pyran-2-yl)oxy)-3-(3-(isoindolin-2-yl)propyl)-8-methoxy-6,8,10,12,12-pentamethyl-4-propyl-1-oxa-4-azacyclotridecane-11,13-dione] | < 4 | < 4 | < 4 | < 4 | > 32 | 4 to 32 (≈ 5.81 to 46.5 µM)
4 | CCCN1C[C@H](C)C[C@@](C)(OC)[C@H](O[C@@H]2O[C@H](C)C[C@H](N(C)C)[C@H]2O)[C@@H](C)C(=O)C(C)(C)C(=O)OC[C@@H]1CCCN1CCCC1 [Compound 127, (3S,6R,8R,9R,10R)-9-(((2S,3R,4S,6R)-4-(dimethylamino)-3-hydroxy-6-methyltetrahydro-2H-pyran-2-yl)oxy)-8-methoxy-6,8,10,12,12-pentamethyl-4-propyl-3-(3-(pyrrolidin-1-yl)propyl)-1-oxa-4-azacyclotridecane-11,13-dione] | < 4 | < 4 | < 4 | 4 to 32 (≈ 6.25 to 50 µM) | > 32 | > 32
5 | CO[C@]1(C)C[C@@H](C)CN(C)[C@@H](CCCN2CCC(C)(C)CC2)COC(=O)C(C)(C)C(=O)[C@H](C)[C@H]1O[C@@H]1O[C@H](C)C[C@H](N(C)C)[C@H]1O [Compound 128, (3S,6R,8R,9R,10R)-9-(((2S,3R,4S,6R)-4-(dimethylamino)-3-hydroxy-6-methyltetrahydro-2H-pyran-2-yl)oxy)-3-(3-(4,4-dimethylpiperidin-1-yl)propyl)-8-methoxy-4,6,8,10,12,12-hexamethyl-1-oxa-4-azacyclotridecane-11,13-dione] | < 4 | < 4 | < 4 | 4 to 32 (≈ 6.12 to 48.9 µM) | > 32 | > 32
6 | CCN1C[C@H](C)C[C@@](C)(OC)[C@H](O[C@@H]2O[C@H](C)C[C@H](N(C)C)[C@H]2O)[C@@H](C)C(=O)C(C)(C)C(=O)OC[C@@H]1CCCN1CCCCC1 [Compound 129, (3S,6R,8R,9R,10R)-9-(((2S,3R,4S,6R)-4-(dimethylamino)-3-hydroxy-6-methyltetrahydro-2H-pyran-2-yl)oxy)-4-ethyl-8-methoxy-6,8,10,12,12-pentamethyl-3-(3-(piperidin-1-yl)propyl)-1-oxa-4-azacyclotridecane-11,13-dione] | < 4 | < 4 | < 4 | 4 to 32 (≈ 6.25 to 50 µM) | > 32 | > 32
7 | CO[C@]1(C)C[C@@H](C)CN(C)[C@H](C[C@H]2C[C@H](N(C)CC3CC3)C2)COC(=O)C(C)(C)C(=O)[C@H](C)[C@H]1O[C@@H]1O[C@H](C)C[C@H](N(C)C)[C@H]1O [Compound 138, (3R,6R,8R,9R,10R)-3-(((1r,3S)-3-((cyclopropylmethyl)(methyl)amino)cyclobutyl)methyl)-9-(((2S,3R,4S,6R)-4-(dimethylamino)-3-hydroxy-6-methyltetrahydro-2H-pyran-2-yl)oxy)-8-methoxy-4,6,8,10,12,12-hexamethyl-1-oxa-4-azacyclotridecane-11,13-dione] | < 4 | < 4 | < 4 | < 4 | > 32 | > 32
8 | CCN1C[C@H](C)C[C@@](C)(OC)[C@H](O[C@@H]2O[C@H](C)C[C@H](N(C)C)[C@H]2O)[C@@H](C)C(=O)C(C)(C)C(=O)OC[C@H]1CCCN1CCCCC1 [Compound 140, (3R,6R,8R,9R,10R)-9-(((2S,3R,4S,6R)-4-(dimethylamino)-3-hydroxy-6-methyltetrahydro-2H-pyran-2-yl)oxy)-4-ethyl-8-methoxy-6,8,10,12,12-pentamethyl-3-(3-(piperidin-1-yl)propyl)-1-oxa-4-azacyclotridecane-11,13-dione] | < 4 | < 4 | < 4 | 4 to 32 (≈ 6.25 to 50 µM) | > 32 | > 32
9 | CO[C@]1(C)C[C@@H](C)CN(CC(C)C)[C@@H](CCCN2CCc3ccccc3C2)COC(=O)C(C)(C)C(=O)[C@H](C)[C@H]1O[C@@H]1O[C@H](C)C[C@H](N(C)C)[C@H]1O [Compound 141, (3S,6R,8R,9R,10R)-3-(3-(3,4-dihydroisoquinolin-2 (1H)-yl)propyl)-9-(((2S,3R,4S,6R)-4-(dimethylamino)-3-hydroxy-6-methyltetrahydro-2H-pyran-2-yl)oxy)-4-isobutyl-8-methoxy-6,8,10,12,12-pentamethyl-1-oxa-4-azacyclotridecane-11,13-dione] | < 4 | < 4 | 4 to 32 (≈ 5.59 to 44.7 µM) | < 4 | > 32 | > 32
10 | CCCN1C[C@H](C)C[C@@](C)(OC)[C@H](O[C@@H]2O[C@H](C)C[C@H](N(C)C)[C@H]2O)[C@@H](C)C(=O)C(C)(C)C(=O)OC[C@H]1CCCN1CCCC1 [Compound 144, (3R,6R,8R,9R,10R)-9-(((2S,3R,4S,6R)-4-(dimethylamino)-3-hydroxy-6-methyltetrahydro-2H-pyran-2-yl)oxy)-8-methoxy-6,8,10,12,12-pentamethyl-4-propyl-3-(3-(pyrrolidin-1-yl)propyl)-1-oxa-4-azacyclotridecane-11,13-dione] | < 4 | < 4 | < 4 | < 4 | < 4 | > 32
11 | CCCN1C[C@H](C)C[C@@](C)(OC)[C@H](O[C@@H]2O[C@H](C)C[C@H](N(C)C)[C@H]2O)[C@@H](C)C(=O)C(C)(C)C(=O)OC[C@H]1CCCN1Cc2ccccc2C1 [Compound 145, (3R,6R,8R,9R,10R)-9-(((2S,3R,4S,6R)-4-(dimethylamino)-3-hydroxy-6-methyltetrahydro-2H-pyran-2-yl)oxy)-3-(3-(isoindolin-2-yl)propyl)-8-methoxy-6,8,10,12,12-pentamethyl-4-propyl-1-oxa-4-azacyclotridecane-11,13-dione] | < 4 | < 4 | < 4 | < 4 | < 4 | > 32
12 | CCN1C[C@H](C)C[C@@](C)(OC)[C@H](O[C@@H]2O[C@H](C)C[C@H](N(C)C)[C@H]2O)[C@@H](C)C(=O)C(C)(C)C(=O)OC[C@H]1[C@H](O)CCN1CCCC1 [Compound 146] | < 4 | < 4 | < 4 | 4 to 32 (≈ 6.23 to 49.9 µM) | > 32 | > 32
13 | CCN1C[C@H](C)C[C@@](C)(OC)[C@H](O[C@@H]2O[C@H](C)C[C@H](N(C)C)[C@H]2O)[C@@H](C)C(=O)C(C)(C)C(=O)OC[C@H]1[C@@H](CCN1CCCC1)OC [Compound 147] | 4 to 32 (≈ 6.1 to 48.8 µM) | < 4 | 4 to 32 (≈ 6.1 to 48.8 µM) | 4 to 32 (≈ 6.1 to 48.8 µM) | > 32 | > 32
14 | CO[C@]1(C)C[C@@H](C)CN(C)[C@H](CC2=CCN(CC3CC3)CC2)COC(=O)C(C)(C)C(=O)[C@H](C)[C@H]1O[C@@H]1O[C@H](C)C[C@H](N(C)C)[C@H]1O [Compound 148] | 4 to 32 (≈ 6.15 to 49.2 µM) | < 4 | 4 to 32 (≈ 6.15 to 49.2 µM) | 4 to 32 (≈ 6.15 to 49.2 µM) | > 32 | > 32
15 | CCCN1CCC(=C[C@@H]2COC(=O)C(C)(C)C(=O)[C@H](C)[C@@H](O[C@@H]3O[C@H](C)C[C@H](N(C)C)[C@H]3O)[C@](C)(OC)C[C@@H](C)CN2C)CC1 [Compound 149] | < 4 | < 4 | < 4 | < 4 | > 32 | > 32
16 | CO[C@]1(C)C[C@@H](C)CN(C)[C@H](C=C2CCN(CC3CC3)CC2)COC(=O)C(C)(C)C(=O)[C@H](C)[C@H]1O[C@@H]1O[C@H](C)C[C@H](N(C)C)[C@H]1O [Compound 150] | < 4 | < 4 | 4 to 32 (≈ 6.15 to 49.2 µM) | 4 to 32 (≈ 6.15 to 49.2 µM) | > 32 | > 32
